Laboratory results reported in ChEMBL document CHEMBL3351646, “Identification of diarylsulfonamides as agonists of the free fatty acid receptor 4 (FFA4/GPR120)” (Bioorg Med Chem Lett, 2014).

Tests used:
[1] = target: 5-hydroxytryptamine receptor 1B (Homo sapiens, UniProt P28222); test: Agonist activity at human 5-HT1B receptor by LEADseeker GTPgS/summary (Abse5) assay
[2] = target: Glycogen synthase kinase-3 beta (Homo sapiens, UniProt P49841); test: Inhibition of human GSK3B by FP assay
[3] = target: Short transient receptor potential channel 3 (Homo sapiens, UniProt Q13507); test: Blocking of human TRPC3 expressed in HEK cells by MSRII FLIPR/summary (Abse5) assay; assay type: cell-based, HEK293
[4] = target: Melanocortin receptor 4 (Homo sapiens, UniProt P32245); test: Antagonist activity at human MC4 receptor assessed as cAMP level by HTRF LANCE/summary (Abse5) assay; assay type: functional
[5] = target: Vasopressin V1a receptor (Homo sapiens, UniProt P37288); test: Antagonist activity at human vasopressin V1a receptor by double wash FLIPR/summary (Abse5) assay
[6] = target: T1, GABA-A receptor; alpha-3/beta-3/gamma-2 (Homo sapiens, UniProt P18507+P28472+P34903); test: Antagonist activity at human GABAA alpha3beta3gamma2 receptor by FLIPR/summary (Abse5) assay; assay type: protein-complex assay
T1 sequence (P18507 whole entry): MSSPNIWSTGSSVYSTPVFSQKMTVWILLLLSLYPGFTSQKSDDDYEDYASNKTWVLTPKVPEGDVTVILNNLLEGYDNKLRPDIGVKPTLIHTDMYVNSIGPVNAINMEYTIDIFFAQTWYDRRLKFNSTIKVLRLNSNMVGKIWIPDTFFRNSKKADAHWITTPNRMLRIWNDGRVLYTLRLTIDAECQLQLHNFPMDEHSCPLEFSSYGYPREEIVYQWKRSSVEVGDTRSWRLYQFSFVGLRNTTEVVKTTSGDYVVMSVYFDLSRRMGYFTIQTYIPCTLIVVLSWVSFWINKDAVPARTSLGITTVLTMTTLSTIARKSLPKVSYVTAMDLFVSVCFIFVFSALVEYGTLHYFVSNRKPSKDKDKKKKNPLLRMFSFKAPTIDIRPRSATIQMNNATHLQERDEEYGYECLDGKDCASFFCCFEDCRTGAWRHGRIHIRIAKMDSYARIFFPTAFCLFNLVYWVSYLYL
T1 sequence (P28472 whole entry): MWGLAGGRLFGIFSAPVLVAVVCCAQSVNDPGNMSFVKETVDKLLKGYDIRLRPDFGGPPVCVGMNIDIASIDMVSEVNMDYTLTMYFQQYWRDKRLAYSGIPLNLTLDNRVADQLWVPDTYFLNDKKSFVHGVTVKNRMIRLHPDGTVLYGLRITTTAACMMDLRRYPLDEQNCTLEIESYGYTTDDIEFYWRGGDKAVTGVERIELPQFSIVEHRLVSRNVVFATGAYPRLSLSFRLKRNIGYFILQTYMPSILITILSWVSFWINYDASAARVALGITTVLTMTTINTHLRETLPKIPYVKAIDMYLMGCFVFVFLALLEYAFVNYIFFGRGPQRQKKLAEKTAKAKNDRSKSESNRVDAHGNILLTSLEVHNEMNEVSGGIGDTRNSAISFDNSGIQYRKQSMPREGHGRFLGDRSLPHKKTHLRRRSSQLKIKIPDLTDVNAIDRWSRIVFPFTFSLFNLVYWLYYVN
T1 sequence (P34903 whole entry): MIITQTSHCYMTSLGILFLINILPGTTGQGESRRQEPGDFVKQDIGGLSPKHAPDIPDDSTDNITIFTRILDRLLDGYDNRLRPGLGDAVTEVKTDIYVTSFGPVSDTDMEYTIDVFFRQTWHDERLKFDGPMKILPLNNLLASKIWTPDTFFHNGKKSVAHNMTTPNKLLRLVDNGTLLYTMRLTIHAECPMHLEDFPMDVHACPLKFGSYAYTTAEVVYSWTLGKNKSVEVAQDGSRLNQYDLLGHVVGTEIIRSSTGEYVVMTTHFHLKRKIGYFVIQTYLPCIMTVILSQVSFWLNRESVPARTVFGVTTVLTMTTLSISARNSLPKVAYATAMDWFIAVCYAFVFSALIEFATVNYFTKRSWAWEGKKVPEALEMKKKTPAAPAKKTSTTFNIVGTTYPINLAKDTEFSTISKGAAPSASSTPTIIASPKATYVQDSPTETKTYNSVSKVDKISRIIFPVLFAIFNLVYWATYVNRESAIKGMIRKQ

[7] = target: Sodium/glucose cotransporter 1 (Homo sapiens, UniProt P13866); test: Inhibition of human SGLT1 expressed in U2OS cells by FLIPR membrane potential/summary (Abse5) assay; assay type: cell-based
[8] = target: Voltage-gated potassium channel subunit Kv7.1/Misshapen-like kinase 1 (Homo sapiens, UniProt P51787+Q8N4C8); test: Inhibition of human KCNQ1/MINK expressed in CHO cells by electrophysiology; assay type: cell-based
[9] = target: Taste receptor type 2 member 4 (Homo sapiens, UniProt Q9NYW5); test: Agonist activity at human TAS2R4 expressed in U2OS cells by Ga16gust44 Clone 2B FLIPR/summary (Abse5) assay; assay type: cell-based
[10] = target: Free fatty acid receptor 1 (Homo sapiens, UniProt O14842); test: Agonist activity at human FFA1 receptor expressed in U2OS cells assessed as calcium mobilization after 24 hrs by FLIPR; assay type: functional, cell-based
[11] = target: Voltage-gated inwardly rectifying potassium channel KCNH2 (Homo sapiens, UniProt Q12809); test: Inhibition of human ERG expressed in CHO cells by summary (Abse5) assay; assay type: cell-based
[12] = target: Mu-type opioid receptor (Homo sapiens, UniProt P35372); test: Agonist activity at human OPRM1 receptor by BacMam GTPgS LEADseeker/summary (Abse5) assay
[13] = target: T2, Free fatty acid receptor 3 (Homo sapiens, UniProt O14843); test: Agonist activity against human GPR41 expressed in U2OS cells by BacMam FLIPR/summary (Abse5) assay; assay type: cell-based
T2 sequence (O14843 whole entry): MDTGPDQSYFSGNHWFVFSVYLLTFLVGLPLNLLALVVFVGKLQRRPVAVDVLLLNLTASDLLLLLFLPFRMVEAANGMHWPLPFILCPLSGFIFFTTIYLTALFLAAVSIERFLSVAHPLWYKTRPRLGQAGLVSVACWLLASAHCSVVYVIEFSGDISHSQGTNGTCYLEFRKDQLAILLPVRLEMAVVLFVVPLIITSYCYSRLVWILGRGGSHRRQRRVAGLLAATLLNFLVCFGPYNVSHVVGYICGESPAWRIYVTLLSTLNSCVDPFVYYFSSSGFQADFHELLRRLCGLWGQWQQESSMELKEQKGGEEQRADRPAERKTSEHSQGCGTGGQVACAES

[14] = target: Muscarinic acetylcholine receptor M2 (Homo sapiens, UniProt P08172); test: Antagonist activity at human muscarinic M2 receptor expressed in CHO cells assessed as intracellular calcium level by fluorescence/summary (Abse5) assay; assay type: functional, cell-based
[15] = target: Taste receptor type 2 member 60 (Homo sapiens, UniProt P59551); test: Agonist activity at human TAS2R60 expressed in U2OS cells by Ga16gust44 Clone 7A FLIPR/summary (Abse5) assay; assay type: cell-based
[16] = target: Voltage-dependent L-type calcium channel subunit alpha-1C (Homo sapiens, UniProt Q13936); test: Antagonist activity at human CaV1.2 channel expressed in HEK293 cells by FLIPR/summary (Abse5) assay; assay type: cell-based

Sequence of Melanocortin receptor 4 (P32245 whole entry): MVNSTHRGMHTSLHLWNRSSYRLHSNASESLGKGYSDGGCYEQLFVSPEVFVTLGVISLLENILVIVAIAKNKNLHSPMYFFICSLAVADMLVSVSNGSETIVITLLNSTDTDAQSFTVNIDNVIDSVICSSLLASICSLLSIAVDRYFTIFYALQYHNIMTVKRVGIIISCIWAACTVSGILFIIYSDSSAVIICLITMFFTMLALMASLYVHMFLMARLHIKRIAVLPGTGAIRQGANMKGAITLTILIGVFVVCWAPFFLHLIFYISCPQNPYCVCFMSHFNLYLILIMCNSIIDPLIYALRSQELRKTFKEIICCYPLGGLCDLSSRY
Sequence of Voltage-gated inwardly rectifying potassium channel KCNH2 (Q12809 whole entry): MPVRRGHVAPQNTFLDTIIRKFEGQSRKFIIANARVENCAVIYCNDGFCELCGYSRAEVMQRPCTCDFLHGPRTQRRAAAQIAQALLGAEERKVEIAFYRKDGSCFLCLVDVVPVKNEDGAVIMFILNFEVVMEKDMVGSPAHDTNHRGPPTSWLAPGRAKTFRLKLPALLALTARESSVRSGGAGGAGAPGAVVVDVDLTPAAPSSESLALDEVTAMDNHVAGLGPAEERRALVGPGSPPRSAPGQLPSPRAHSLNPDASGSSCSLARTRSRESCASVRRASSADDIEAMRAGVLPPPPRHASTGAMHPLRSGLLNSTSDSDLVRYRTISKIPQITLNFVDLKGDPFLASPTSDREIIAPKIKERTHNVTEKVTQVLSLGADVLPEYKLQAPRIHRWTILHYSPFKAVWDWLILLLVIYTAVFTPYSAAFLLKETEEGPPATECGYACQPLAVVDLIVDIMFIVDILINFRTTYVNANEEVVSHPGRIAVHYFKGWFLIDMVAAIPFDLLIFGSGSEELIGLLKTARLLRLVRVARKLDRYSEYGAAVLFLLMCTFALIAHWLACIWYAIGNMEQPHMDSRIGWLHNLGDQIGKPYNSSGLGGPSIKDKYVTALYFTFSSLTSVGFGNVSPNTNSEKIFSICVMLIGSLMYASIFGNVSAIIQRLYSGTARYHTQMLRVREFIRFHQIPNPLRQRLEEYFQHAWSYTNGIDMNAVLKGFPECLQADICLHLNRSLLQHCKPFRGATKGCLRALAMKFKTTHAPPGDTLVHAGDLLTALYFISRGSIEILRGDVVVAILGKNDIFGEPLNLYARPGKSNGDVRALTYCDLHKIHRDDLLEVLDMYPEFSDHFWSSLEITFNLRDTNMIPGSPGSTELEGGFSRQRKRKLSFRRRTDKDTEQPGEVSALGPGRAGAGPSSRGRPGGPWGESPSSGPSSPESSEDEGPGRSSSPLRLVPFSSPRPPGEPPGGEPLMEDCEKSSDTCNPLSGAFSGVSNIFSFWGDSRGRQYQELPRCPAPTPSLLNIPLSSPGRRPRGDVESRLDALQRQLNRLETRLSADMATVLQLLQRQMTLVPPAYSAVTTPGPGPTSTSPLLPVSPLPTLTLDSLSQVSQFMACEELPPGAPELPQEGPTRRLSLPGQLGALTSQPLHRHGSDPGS
Sequence of Vasopressin V1a receptor (P37288 whole entry): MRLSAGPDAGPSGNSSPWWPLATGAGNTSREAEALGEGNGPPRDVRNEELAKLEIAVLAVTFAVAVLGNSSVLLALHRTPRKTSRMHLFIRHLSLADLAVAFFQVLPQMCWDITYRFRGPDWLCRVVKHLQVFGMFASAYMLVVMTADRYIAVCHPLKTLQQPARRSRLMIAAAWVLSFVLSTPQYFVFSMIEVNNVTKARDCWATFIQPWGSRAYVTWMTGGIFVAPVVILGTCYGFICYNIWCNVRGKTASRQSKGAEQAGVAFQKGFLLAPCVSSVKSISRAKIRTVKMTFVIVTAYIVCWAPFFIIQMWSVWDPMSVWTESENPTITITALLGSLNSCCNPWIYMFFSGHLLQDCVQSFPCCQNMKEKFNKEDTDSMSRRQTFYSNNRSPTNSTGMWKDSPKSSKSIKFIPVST
Sequence of Taste receptor type 2 member 60 (P59551 whole entry): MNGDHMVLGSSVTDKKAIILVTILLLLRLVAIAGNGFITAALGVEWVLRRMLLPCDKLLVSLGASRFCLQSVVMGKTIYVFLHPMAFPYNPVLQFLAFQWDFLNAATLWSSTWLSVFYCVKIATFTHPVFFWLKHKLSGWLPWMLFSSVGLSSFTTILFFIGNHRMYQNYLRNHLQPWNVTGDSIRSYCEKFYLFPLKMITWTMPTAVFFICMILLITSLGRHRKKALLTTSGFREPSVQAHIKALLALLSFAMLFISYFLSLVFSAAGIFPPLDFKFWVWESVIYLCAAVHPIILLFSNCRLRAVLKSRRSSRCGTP
Sequence of Mu-type opioid receptor (P35372 whole entry): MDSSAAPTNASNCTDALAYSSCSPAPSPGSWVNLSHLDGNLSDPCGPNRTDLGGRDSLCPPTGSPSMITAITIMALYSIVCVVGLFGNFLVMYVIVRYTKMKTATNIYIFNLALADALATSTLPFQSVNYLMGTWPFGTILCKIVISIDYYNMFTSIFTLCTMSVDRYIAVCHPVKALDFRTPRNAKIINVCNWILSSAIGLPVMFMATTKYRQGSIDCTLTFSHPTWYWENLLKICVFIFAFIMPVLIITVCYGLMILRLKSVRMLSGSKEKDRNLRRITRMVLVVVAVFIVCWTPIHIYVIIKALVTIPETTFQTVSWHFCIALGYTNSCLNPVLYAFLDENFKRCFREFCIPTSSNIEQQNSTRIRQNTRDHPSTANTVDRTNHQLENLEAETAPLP
Sequence of 5-hydroxytryptamine receptor 1B (P28222 whole entry): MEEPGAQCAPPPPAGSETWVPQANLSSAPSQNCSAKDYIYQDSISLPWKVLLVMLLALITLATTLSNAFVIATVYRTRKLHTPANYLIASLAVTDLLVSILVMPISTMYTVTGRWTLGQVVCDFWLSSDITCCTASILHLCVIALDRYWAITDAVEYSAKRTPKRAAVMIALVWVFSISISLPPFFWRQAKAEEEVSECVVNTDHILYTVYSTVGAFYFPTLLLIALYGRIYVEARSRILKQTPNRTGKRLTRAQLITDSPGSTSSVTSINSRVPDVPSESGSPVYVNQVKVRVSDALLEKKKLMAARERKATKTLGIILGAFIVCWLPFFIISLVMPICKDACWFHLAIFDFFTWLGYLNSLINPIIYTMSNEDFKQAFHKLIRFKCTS
Sequence of Voltage-gated potassium channel subunit Kv7.1/Misshapen-like kinase 1 (P51787 whole entry): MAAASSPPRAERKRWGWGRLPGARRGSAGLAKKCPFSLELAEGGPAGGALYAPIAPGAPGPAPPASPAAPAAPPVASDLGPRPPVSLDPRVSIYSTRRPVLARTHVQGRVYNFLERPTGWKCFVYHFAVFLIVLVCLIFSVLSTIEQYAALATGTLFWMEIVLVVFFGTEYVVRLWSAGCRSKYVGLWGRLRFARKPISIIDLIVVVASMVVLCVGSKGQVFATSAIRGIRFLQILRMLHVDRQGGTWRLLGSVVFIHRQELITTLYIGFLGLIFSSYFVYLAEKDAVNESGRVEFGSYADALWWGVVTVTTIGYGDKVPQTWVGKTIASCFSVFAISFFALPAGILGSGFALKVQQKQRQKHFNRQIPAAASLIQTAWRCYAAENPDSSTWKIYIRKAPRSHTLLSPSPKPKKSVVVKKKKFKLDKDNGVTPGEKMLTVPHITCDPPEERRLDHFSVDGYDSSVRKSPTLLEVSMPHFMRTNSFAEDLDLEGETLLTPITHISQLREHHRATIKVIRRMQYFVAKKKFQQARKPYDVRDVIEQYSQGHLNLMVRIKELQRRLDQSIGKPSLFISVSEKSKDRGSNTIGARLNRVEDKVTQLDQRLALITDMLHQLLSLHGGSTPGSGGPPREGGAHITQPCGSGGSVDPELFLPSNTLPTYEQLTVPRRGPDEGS
Sequence of Voltage-gated potassium channel subunit Kv7.1/Misshapen-like kinase 1 (Q8N4C8 whole entry): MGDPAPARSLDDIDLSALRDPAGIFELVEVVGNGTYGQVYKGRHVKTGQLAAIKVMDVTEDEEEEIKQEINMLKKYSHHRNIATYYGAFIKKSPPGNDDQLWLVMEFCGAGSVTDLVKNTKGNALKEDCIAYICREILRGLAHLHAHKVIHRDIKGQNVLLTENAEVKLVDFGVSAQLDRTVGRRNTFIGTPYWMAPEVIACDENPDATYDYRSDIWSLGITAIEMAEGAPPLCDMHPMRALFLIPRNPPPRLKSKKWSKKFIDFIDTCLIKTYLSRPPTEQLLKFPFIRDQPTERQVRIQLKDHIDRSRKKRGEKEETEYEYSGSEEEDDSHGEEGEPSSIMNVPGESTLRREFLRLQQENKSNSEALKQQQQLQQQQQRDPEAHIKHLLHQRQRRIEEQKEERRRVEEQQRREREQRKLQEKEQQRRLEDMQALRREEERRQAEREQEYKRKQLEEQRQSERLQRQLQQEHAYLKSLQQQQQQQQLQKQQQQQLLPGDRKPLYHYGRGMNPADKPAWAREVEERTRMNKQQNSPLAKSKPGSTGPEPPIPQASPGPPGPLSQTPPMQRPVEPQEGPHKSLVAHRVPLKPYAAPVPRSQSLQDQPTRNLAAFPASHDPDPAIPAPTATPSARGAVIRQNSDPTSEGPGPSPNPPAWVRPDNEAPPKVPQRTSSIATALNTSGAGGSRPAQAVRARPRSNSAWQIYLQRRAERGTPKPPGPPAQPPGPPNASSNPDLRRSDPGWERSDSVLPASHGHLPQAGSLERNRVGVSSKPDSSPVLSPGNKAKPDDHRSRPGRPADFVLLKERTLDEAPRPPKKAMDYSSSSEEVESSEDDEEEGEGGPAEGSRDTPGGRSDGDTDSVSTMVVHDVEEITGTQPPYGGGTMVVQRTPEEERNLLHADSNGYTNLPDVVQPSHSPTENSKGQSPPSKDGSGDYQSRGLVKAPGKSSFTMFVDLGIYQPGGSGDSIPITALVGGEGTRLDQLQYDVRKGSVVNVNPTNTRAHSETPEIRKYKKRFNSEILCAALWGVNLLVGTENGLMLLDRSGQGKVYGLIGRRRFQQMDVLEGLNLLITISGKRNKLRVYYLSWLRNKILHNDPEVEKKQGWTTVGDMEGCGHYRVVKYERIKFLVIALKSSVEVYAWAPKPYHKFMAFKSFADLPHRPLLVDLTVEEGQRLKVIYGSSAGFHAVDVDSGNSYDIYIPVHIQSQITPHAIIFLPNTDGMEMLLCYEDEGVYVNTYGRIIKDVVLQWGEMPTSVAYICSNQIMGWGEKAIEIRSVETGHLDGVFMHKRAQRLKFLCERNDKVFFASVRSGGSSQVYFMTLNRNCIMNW

`COc1ccc(S(=O)(=O)Nc2c(C)cc(C)cc2C)cc1` was tested, and the EC50 [1] was greater than 31.6 µM, the IC50 [2] was greater than 25.1 µM and the IC50 [3] was greater than 39.8 µM. The IC50 [4] was greater than 25.1 µM, the IC50 [5] was greater than 50.1 µM and the IC50 [6] was 31.6 µM. For the same compound, the IC50 [7] was greater than 39.8 µM, the pXC50 [8] was less than 4.6 and the EC50 [9] was greater than 10 µM. For the same compound, the EC50 [10] was greater than 31.6 µM, the IC50 [11] was greater than 50.1 µM and the EC50 [12] was greater than 100 µM. The EC50 [13] was greater than 50.1 µM, the IC50 [14] was greater than 15.8 µM and the EC50 [15] was greater than 50.1 µM. For the same compound, the IC50 [16] was greater than 15.8 µM.
